pIC50: −log10 of the molar value. Where a SMILES comes first, the peptide text is derived from it. [ ]: non-standard residue; d: D form. The star is where a group is joined. X1 = CC(C)CCC[C@@H](C)[C@H]1CC[C@H]2[C@@H]3CC=C4C[C@@H](OC(=O)CCOCCOCCOCCOCCNC(=O)C*)CC[C@]4(C)[C@H]3CC[C@]12C; Pentadecanoyl = CCCCCCCCCCCCCCC(=O)*; Palmitoyl = CCCCCCCCCCCCCCCC(=O)*; Hyp = O=C(O)[C@@H]1C[C@@H](O)CN1; Tridecanoyl = CCCCCCCCCCCCC(=O)*; dHyp = O=C(O)[C@H]1C[C@H](O)CN1; dNle = CCCC[C@@H](N)C(=O)O; Nle = CCCC[C@H](N)C(=O)O
How the values were obtained:
[1] = Table 2; cited from earlier work
[2] = MTT cytotoxicity assay on Vero cells; type: cell-based; conditions: MTT; for CC50: calculated after 2 h of peptide treatment; for viability: 2 h, concentrations below 25 μM, read-out: viable cells
[3] = system: influenza virus (subtype H1N1); conditions: influenza virus (subtype, 2 h)
MeV = conditions: 2 h
HPIV-3 = conditions: 2 h
HCoV-OC43 = conditions: 2 h
HCoV-229E = conditions: 2 h

SMILES	%Helix in DPC [1]	CC50 [2]	pIC50 [3]	IC90 [3]	pIC50 (MeV)	IC90 (MeV)	pIC50 (HPIV-3)	IC90 (HPIV-3)	pIC50 (HCoV-OC43)	IC90 (HCoV-OC43)	pIC50 (HCoV-229E)	IC90 (HCoV-229E)	viability [2]
CC[C@H](C)[C@H](NC(=O)[C@H](CCCNC(=N)N)NC(=O)[C@@H]1CCCN1C(=O)[C@@H](CC(C)C)NC(=O)[C@H](Cc1ccccc1)NC(=O)[C@H](CCCCN)NC(=O)[C@H](CO)NC(=O)[C@H](Cc1ccccc1)NC(=O)[C@H](Cc1c[nH]c2ccccc12)NC(=O)[C@@H]1CCCN1C(=O)[C@@H](NC(=O)[C@@H](N)Cc1ccccc1)C(C)C)C(=O)N[C@@H](CC(C)C)C(N)=O [TL2, H-Phe-Val-Pro-Trp-Phe-Ser-Lys-Phe-DLeu-Pro-Arg-Ile-Leu-NH2] (H-FVPWFSKF[dL]PRIL-NH2)	15%	56.5 µM	4.92	21.3 µM	< 4.30	> 50 µM							
CC[C@H](C)[C@H](NC(=O)[C@H](CCCNC(=N)N)NC(=O)[C@H]1CCCN1C(=O)[C@@H](CC(C)C)NC(=O)[C@H](Cc1ccccc1)NC(=O)[C@H](CCCCN)NC(=O)[C@H](CO)NC(=O)[C@H](Cc1ccccc1)NC(=O)[C@H](Cc1c[nH]c2ccccc12)NC(=O)[C@@H]1CCCN1C(=O)[C@@H](NC(=O)[C@@H](N)Cc1ccccc1)C(C)C)C(=O)N[C@@H](CC(C)C)C(N)=O [TL3, H-Phe-Val-Pro-Trp-Phe-Ser-Lys-Phe-DLeu-DPro-Arg-Ile-Leu-NH2] (H-FVPWFSKF[dL][dP]RIL-NH2)	8%	> 100 µM	< 4.30	> 50 µM	< 4.30	> 50 µM							
CC[C@H](C)[C@H](NC(=O)[C@H](CCCNC(=N)N)NC(=O)[C@@H]1C[C@@H](O)CN1C(=O)[C@@H](CC(C)C)NC(=O)[C@H](Cc1ccccc1)NC(=O)[C@H](CCCCN)NC(=O)[C@H](CO)NC(=O)[C@H](Cc1ccccc1)NC(=O)[C@H](Cc1c[nH]c2ccccc12)NC(=O)[C@@H]1CCCN1C(=O)[C@@H](NC(=O)[C@@H](N)Cc1ccccc1)C(C)C)C(=O)N[C@@H](CC(C)C)C(N)=O [TL4, H-Phe-Val-Pro-Trp-Phe-Ser-Lys-Phe-DLeu-Hyp-Arg-Ile-Leu-NH2] (H-FVPWFSKF[dL][Hyp]RIL-NH2)	18%	60.2 µM	4.79	31.7 µM	< 4.30	> 50 µM	< 4.30	> 50 µM					
CC[C@H](C)[C@H](NC(=O)[C@H](CCCNC(=N)N)NC(=O)[C@H]1C[C@H](O)CN1C(=O)[C@@H](CC(C)C)NC(=O)[C@H](Cc1ccccc1)NC(=O)[C@H](CCCCN)NC(=O)[C@H](CO)NC(=O)[C@H](Cc1ccccc1)NC(=O)[C@H](Cc1c[nH]c2ccccc12)NC(=O)[C@@H]1CCCN1C(=O)[C@@H](NC(=O)[C@@H](N)Cc1ccccc1)C(C)C)C(=O)N[C@@H](CC(C)C)C(N)=O [TL5, H-Phe-Val-Pro-Trp-Phe-Ser-Lys-Phe-DLeu-DHyp-Arg-Ile-Leu-NH2] (H-FVPWFSKF[dL][dHyp]RIL-NH2)	9%	> 100 µM	< 4.30	> 50 µM	< 4.30	> 50 µM	< 4.30	> 50 µM	< 4.30	> 50 µM	< 4.30	> 50 µM	
CCCC[C@H](NC(=O)[C@@H](CC(C)C)NC(=O)[C@H](Cc1ccccc1)NC(=O)[C@H](CCCCN)NC(=O)[C@H](CO)NC(=O)[C@H](Cc1ccccc1)NC(=O)[C@H](Cc1c[nH]c2ccccc12)NC(=O)[C@@H]1CCCN1C(=O)[C@@H](NC(=O)[C@@H](N)Cc1ccccc1)C(C)C)C(=O)N[C@@H](CCCNC(=N)N)C(=O)N[C@H](C(=O)N[C@@H](CC(C)C)C(=O)N[C@@H](CSCC(=O)NCCOCCOCCOCCOCCC(=O)O[C@H]1CC[C@@]2(C)C(=CC[C@H]3[C@@H]4CC[C@H]([C@H](C)CCCC(C)C)[C@@]4(C)CC[C@@H]32)C1)C(N)=O)[C@@H](C)CC [TL6.1, H-Phe-Val-Pro-Trp-Phe-Ser-Lys-Phe-DLeu-Nle-Arg-Ile-Leu-Cys-[PEG4-Cholesterol]-NH2] (H-FVPWFSKF[dL][Nle]RILC(X1)-NH2)		> 100 µM	5.26	10 µM	4.41	> 50 µM							
CCCCCCCCCCCCC(=O)N[C@@H](Cc1ccccc1)C(=O)N[C@H](C(=O)N1CCC[C@H]1C(=O)N[C@@H](Cc1c[nH]c2ccccc12)C(=O)N[C@@H](Cc1ccccc1)C(=O)N[C@@H](CO)C(=O)N[C@@H](CCCCN)C(=O)N[C@@H](Cc1ccccc1)C(=O)N[C@H](CC(C)C)C(=O)N[C@@H](CCCC)C(=O)N[C@@H](CCCNC(=N)N)C(=O)N[C@H](C(=O)N[C@@H](CC(C)C)C(N)=O)[C@@H](C)CC)C(C)C [TL6.6, H-Tridecanoic acid-Phe-Val-Pro-Trp-Phe-Ser-Lys-Phe-DLeu-Nle-Arg-Ile-Leu-NH2] (Tridecanoyl-FVPWFSKF[dL][Nle]RIL-NH2)		> 100 µM	5.47	6.66 µM	4.48	> 50 µM							
CCCCCCCCCCCCCCC(=O)N[C@@H](Cc1ccccc1)C(=O)N[C@H](C(=O)N1CCC[C@H]1C(=O)N[C@@H](Cc1c[nH]c2ccccc12)C(=O)N[C@@H](Cc1ccccc1)C(=O)N[C@@H](CO)C(=O)N[C@@H](CCCCN)C(=O)N[C@@H](Cc1ccccc1)C(=O)N[C@H](CC(C)C)C(=O)N[C@@H](CCCC)C(=O)N[C@@H](CCCNC(=N)N)C(=O)N[C@H](C(=O)N[C@@H](CC(C)C)C(N)=O)[C@@H](C)CC)C(C)C [TL6.7, H-Pentadecanoic acid-Phe-Val-Pro-Trp-Phe-Ser-Lys-Phe-DLeu-Nle-Arg-Ile-Leu-NH2] (Pentadecanoyl-FVPWFSKF[dL][Nle]RIL-NH2)		> 100 µM	5.46	8.1 µM	4.42	> 50 µM							
CCCCCCCCCCCCCCCC(=O)N[C@@H](Cc1ccccc1)C(=O)N[C@H](C(=O)N1CCC[C@H]1C(=O)N[C@@H](Cc1c[nH]c2ccccc12)C(=O)N[C@@H](Cc1ccccc1)C(=O)N[C@@H](CO)C(=O)N[C@@H](CCCCN)C(=O)N[C@@H](Cc1ccccc1)C(=O)N[C@H](CC(C)C)C(=O)N[C@@H](CCCC)C(=O)N[C@@H](CCCNC(=N)N)C(=O)N[C@H](C(=O)N[C@@H](CC(C)C)C(N)=O)[C@@H](C)CC)C(C)C [TL6.8, H-Palmitic acid-Phe-Val-Pro-Trp-Phe-Ser-Lys-Phe-DLeu-Nle-Arg-Ile-Leu-NH2] (Palmitoyl-FVPWFSKF[dL][Nle]RIL-NH2)		> 100 µM	5.32	7.11 µM	4.40	> 50 µM							
CCCC[C@@H](NC(=O)[C@@H](CC(C)C)NC(=O)[C@H](Cc1ccccc1)NC(=O)[C@H](CCCCN)NC(=O)[C@H](CO)NC(=O)[C@H](Cc1ccccc1)NC(=O)[C@H](Cc1c[nH]c2ccccc12)NC(=O)[C@@H]1CCCN1C(=O)[C@@H](NC(=O)[C@@H](N)Cc1ccccc1)C(C)C)C(=O)N[C@@H](CCCNC(=N)N)C(=O)N[C@H](C(=O)N[C@@H](CC(C)C)C(N)=O)[C@@H](C)CC [TL7, H-Phe-Val-Pro-Trp-Phe-Ser-Lys-Phe-DLeu-DNle-Arg-Ile-Leu-NH2] (H-FVPWFSKF[dL][dNle]RIL-NH2)	30%	32.2 µM	5.35	13.5 µM	< 4.30	> 50 µM	< 4.30	> 50 µM					
CC[C@H](C)[C@H](NC(=O)[C@H](CCCNC(=N)N)NC(=O)[C@H](CCCCN)NC(=O)[C@@H](CC(C)C)NC(=O)[C@H](Cc1ccccc1)NC(=O)[C@H](CCCCN)NC(=O)[C@H](CO)NC(=O)[C@H](Cc1ccccc1)NC(=O)[C@H](Cc1c[nH]c2ccccc12)NC(=O)[C@@H]1CCCN1C(=O)[C@@H](NC(=O)[C@@H](N)Cc1ccccc1)C(C)C)C(=O)N[C@@H](CC(C)C)C(N)=O [TL8, H-Phe-Val-Pro-Trp-Phe-Ser-Lys-Phe-DLeu-Lys-Arg-Ile-Leu-NH2] (H-FVPWFSKF[dL]KRIL-NH2)	61%	22.3 µM	5.47	9.78 µM	4.43	> 50 µM							
CC[C@H](C)[C@H](NC(=O)[C@H](CCCNC(=N)N)NC(=O)[C@@H](CCCCN)NC(=O)[C@@H](CC(C)C)NC(=O)[C@H](Cc1ccccc1)NC(=O)[C@H](CCCCN)NC(=O)[C@H](CO)NC(=O)[C@H](Cc1ccccc1)NC(=O)[C@H](Cc1c[nH]c2ccccc12)NC(=O)[C@@H]1CCCN1C(=O)[C@@H](NC(=O)[C@@H](N)Cc1ccccc1)C(C)C)C(=O)N[C@@H](CC(C)C)C(N)=O [TL9, H-Phe-Val-Pro-Trp-Phe-Ser-Lys-Phe-DLeu-DLys-Arg-Ile-Leu-NH2] (H-FVPWFSKF[dL][dK]RIL-NH2)	30%	45.9 µM	5.46	11.2 µM	4.35	> 50 µM							> 65%
CC[C@H](C)[C@H](NC(=O)[C@H](CCCNC(=N)N)NC(=O)[C@H](Cc1c[nH]c2ccccc12)NC(=O)[C@@H](CC(C)C)NC(=O)[C@H](Cc1ccccc1)NC(=O)[C@H](CCCCN)NC(=O)[C@H](CO)NC(=O)[C@H](Cc1ccccc1)NC(=O)[C@H](Cc1c[nH]c2ccccc12)NC(=O)[C@@H]1CCCN1C(=O)[C@@H](NC(=O)[C@@H](N)Cc1ccccc1)C(C)C)C(=O)N[C@@H](CC(C)C)C(N)=O [TL10, H-Phe-Val-Pro-Trp-Phe-Ser-Lys-Phe-DLeu-Trp-Arg-Ile-Leu-NH2] (H-FVPWFSKF[dL]WRIL-NH2)	50%	35.5 µM	5.42	12.1 µM	4.37	> 50 µM							> 65%
CC[C@H](C)[C@H](NC(=O)[C@H](CCCNC(=N)N)NC(=O)[C@@H](Cc1c[nH]c2ccccc12)NC(=O)[C@@H](CC(C)C)NC(=O)[C@H](Cc1ccccc1)NC(=O)[C@H](CCCCN)NC(=O)[C@H](CO)NC(=O)[C@H](Cc1ccccc1)NC(=O)[C@H](Cc1c[nH]c2ccccc12)NC(=O)[C@@H]1CCCN1C(=O)[C@@H](NC(=O)[C@@H](N)Cc1ccccc1)C(C)C)C(=O)N[C@@H](CC(C)C)C(N)=O [TL11, H-Phe-Val-Pro-Trp-Phe-Ser-Lys-Phe-DLeu-DTrp-Arg-Ile-Leu-NH2] (H-FVPWFSKF[dL][dW]RIL-NH2)	40%	24.1 µM	5.52	9.77 µM	4.36	> 50 µM							

From article PMC8878748, “Broad-Spectrum Antiviral Activity of the Amphibian Antimicrobial Peptide Temporin L and Its Analogs” (International Journal of Molecular Sciences, 2022)
